These results are taken from US7439265B2, “Irciniastatins a and b” (Arizona Board of Regents, a body corporate of the State of …, priority 2003, dated 2008).

In brackets after ≈: the same amount, converted by molar mass. A value given as a limit tells only on which side of the number the result lay.

Assay [1] has as its system MCF-7 breast cancer cell line. Description: Sulforhodamine B cancer cell growth inhibition, MCF-7. The conditions noted are these: 48 hours. It counts as cell-based, human. The method, then:
(§1) Inhibition of human cancer cell growth was assessed using the National Cancer Institute's standard sulforhodamine B assay as previously described. Briefly, cells in a 5% fetal bovine serum/RPMI1640 medium solution were inoculated in 96-well plates and incubated for 24 hours Serial dilutions of the compounds were then added. After 48 hours, the plates were fixed with trichloroacetic acid, stained with sulforhodamine B and read with an automated microplate reader. A growth inhibition of 50% (GI50 of the drug concentration causing a 50% reduction in the net protein increase) was calculated from optical density data with Immunosoft software. Inhibition of the mouse leukemia P388 cells was assessed in a 10% horse serum/Fisher medium solution for 24 hours, followed by a 48 hour incubation with serial dilutions of the compounds. Cell growth inhibition (ED50) was then calculated using a Z1 Beckman/Coulter particle counter. (Monks, A., et al., Feasibility of high-flux anticancer screen using a diverse panel of cultured human tumor cell lines, J Natl. Cancer Inst. 1991, 83, 757-766.)

In assay [2] the test system is NCI-H460 lung cancer cell line. Description: Sulforhodamine B cancer cell growth inhibition, NCI-H460. The class given is cell-based, human. The conditions noted are these: for GI50: NCI-H460 lung, 48 hours. The method, then:
as §1

The subject of assay [3] is P388 lymphocytic leukemia cells. The experiment in a line: Inhibition of mouse leukemia P388 cell growth. It counts as cell-based. The conditions noted are these: P388 murine leukemia, in Table 2. The method, then: as §1
For assay [4], the system named is Neisseria gonorrhoeae ATCC 49226. Description: Broth microdilution antibacterial susceptibility. The class given is cell-based. The method, then:
(§2) Ircinastatin A (1) was evaluated against the bacteria Stenotrophomonas maltophilia ATCC 13637, Micrococcus luteus Presque Isle 456, Staphylococcus aureus ATCC 29213, Escherichia coli ATCC 25922, Enterobacter cloacae ATCC 13047, Enterococcus faecalis ATCC 29212, Streptococcus pneumoniae ATCC 6303 and Neisseria gonorrhoeae ATCC 49226, and the fungi Candida albicans ATCC 90028 and Cryptococcus neoformans ATCC 90112, following established broth microdilution susceptibility assays. The minimum inhibitory concentration was defined as the lowest concentration of irciniastatin A that inhibited all visible growth of the test organism (optically clear). Assays were repeated on separate days. (National Committee for Clinical Laboratory Standards. Methods for Dilution Antimicrobial Susceptibility Tests for Bacteria that Grow Aerobically. Approved Standard M7-A5. Wayne, Pa.: NCCLS, 2000; National Committee for Clinical Laboratory Standards. Reference Method for Broth Dilution Antifungal Susceptibility Testing of Yeasts. Approved Standard M27-A. Wayne, Pa.: NCCLS, 1997.)
A general note: Broth dilution looks for growth in wells or tubes with falling amounts of substance.

Assay [5] concerns BXPC-3 pancreas cancer cell line. The experiment in a line: Sulforhodamine B cancer cell growth inhibition, BXPC-3. It counts as cell-based, human. To be noted: 48 hours. The method, then:
as §1

Assay [6] deals with HUVEC (human umbilical vascular endothelial cells). The experiment in a line: Growth inhibition of normal endothelial cells (HUVEC). The class given is cell-based.
Assay [7] deals with KM20L2 colon cancer cell line. The experiment in a line: Sulforhodamine B cancer cell growth inhibition, KM20L2. It counts as cell-based, human. The conditions noted are these: 48 hours. The method, then: as §1
For assay [8], the system named is Cryptococcus neoformans ATCC 90112. Description: Broth microdilution antifungal susceptibility. The class given is cell-based. The method, then:
as §2

The subject of assay [9] is SF268 CNS cancer cell line. Description: Sulforhodamine B cancer cell growth inhibition, SF268. The class given is cell-based, human. To be noted: 48 hours. The method, then:
as §1

Assay [10] relates to DU-145 prostate cancer cell line. The experiment in a line: Sulforhodamine B cancer cell growth inhibition, DU-145. The conditions noted are these: 48 hours. It counts as cell-based, human. The method, then: as §1
For assay [11], the system named is murine P388 leukemia cell line and six human cancer cell lines. The experiment in a line: Cancer cell growth inhibition, P388 plus minipanel of human cancer cell lines (summary). It counts as cell-based. To be noted: against P388, BXPC-3, MCF-7 and SF268. The method, then: as §1

In the case of `C=C(C)CC(OC)[C@H](O)C(=O)N[C@@H](OC)[C@@H]1C[C@@H](O)C(C)(C)[C@@H](C[C@H](O)[C@@H](C)[C@H]2Cc3c(C)c(O)cc(O)c3C(=O)O2)O1` (stereo partly shown) [Irciniastatin A, irciniastatin A], the GI50 in assay [1] was 3.2 ng/mL (≈ 5.25 nM); in assay [2] it was less than 0.1 ng/mL; in assay [3], 4.13 ng/mL (≈ 6.77 nM); in assay [5], 3.8 ng/mL (≈ 6.23 nM); in assay [6], less than 0.5 ng/mL; in assay [7], 2.7 ng/mL (≈ 4.43 nM). Further, the figures for the GI50 in [9] and in assay [10] were 3.4 ng/mL (≈ 5.58 nM) and 2.4 ng/mL (≈ 3.94 nM), respectively. For the same compound, in [2] (NCI-H460 lung cancer cells), the “activity of irciniastatin A relative to irciniastatin B” value is “at least 10 times”. Further, the minimum inhibitory concentration in assay [4] turned out to be 64000 ng/mL (≈ 105000 nM); in assay [8], 16000 ng/mL (≈ 26200 nM).
As for `C=C(C)C[C@H](OC)[C@H](O)C(=O)N[C@@H](OC)[C@@H]1CC(=O)C(C)(C)[C@@H](C[C@H](O)[C@@H](C)[C@H]2Cc3c(C)c(O)cc(O)c3C(=O)O2)O1` [Irciniastatin B, irciniastatin B], the GI50 in [1] is 0.5 ng/mL (≈ 0.823 nM); in assay [2], 1.2 ng/mL (≈ 1.97 nM); in assay [3], 6 ng/mL (≈ 9.87 nM); in [5], 0.73 ng/mL (≈ 1.2 nM); in [7], 2.1 ng/mL (≈ 3.46 nM); in assay [9], 0.66 ng/mL (≈ 1.09 nM). The compound further returned a GI50 in assay [10] of 1.6 ng/mL (≈ 2.63 nM). Also, the “cell growth inhibition of irciniastatin B (2) relative to irciniastatin A (1)” value in assay [11] was “ten times stronger”.

What is called GI50 is the concentration giving 50% growth inhibition.
